Reference: publication PMC3579217 (Journal of molecular biology, 2012)

Molecular target: myrMA (myristoylated M-PMV matrix protein) (Mason-Pfizer monkey virus, UniProt P07567)
Test: 1H/[…] HSQC NMR titration
Format: binding

Chain of myrMA (myristoylated M-PMV matrix protein) (P07567 2-118): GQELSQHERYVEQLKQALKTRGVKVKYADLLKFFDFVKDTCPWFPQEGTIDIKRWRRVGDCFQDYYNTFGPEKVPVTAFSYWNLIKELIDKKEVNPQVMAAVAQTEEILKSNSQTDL

CCCCCCCC(=O)OC[C@H](COP(=O)(O)O[C@@H]1[C@H](O)[C@H](O)[C@@H](OP(=O)(O)O)[C@H](OP(=O)(O)O)[C@H]1O)OC(=O)CCCCCCC [C8-PI(4,5)P2] gave a Kd of 92.8 ± 7.5 µM.
